Results on 5 compounds are retold here after ChEMBL document CHEMBL4431334, “Occupying a flat subpocket in a tRNA-modifying enzyme with ordered or disordered side chains: Favorable or unfavorable for binding?” (Bioorg Med Chem, 2016).

Experiment [1] can be described thus: Binding affinity to Zymomonas mobilis tRNA guanine transglycosylase assessed as inhibition of [8-3H]guanine incorporation into Escherichia coli tRNA Tyr at position G34 preincubated for 10 mins followed by tRNA Tyr/[8-3H]guanine addition measured after 30 mins by liquid scintillation counting.
The nature of experiment [2]: Binding affinity to Zymomonas mobilis tRNA guanine transglycosylase by isothermal titration calorimetry. For orientation: Isothermal titration calorimetry measures the heat released or taken up as one component is titrated into another.

In the case of `Nc1nc2cc3nc(NCCc4ccc(CCO)cc4)[nH]c3cc2c(=O)[nH]1`, the inhibition constant (Ki) in experiment [1] turned out to be 7 nM.

In the case of `COC(=O)c1ccc(CCNc2nc3cc4nc(N)[nH]c(=O)c4cc3[nH]2)cc1`, the inhibitory constant (Ki) in experiment [1] is 2 nM.

Turning to `Nc1nc2cc3nc(NCCc4ccccc4)[nH]c3cc2c(=O)[nH]1`, in experiment [1], the inhibition constant Ki is 10 nM. The compound further yielded a dissociation constant (Kd) in experiment [2] of 56.6 nM.

With `Nc1nc2cc3nc(NCCc4ccc(C(=O)O)cc4)[nH]c3cc2c(=O)[nH]1`, in experiment [1], the Ki stood at 30 nM. The Kd in experiment [2] came to 29.8 nM.

With `N#Cc1ccc(CCNc2nc3cc4nc(N)[nH]c(=O)c4cc3[nH]2)cc1`, the Ki in experiment [1] turned out to be 21 nM.

The Ki is a measure of affinity in units of concentration, obtained from inhibition or displacement. For orientation: Kd means the concentration at which binding is half-saturated. A higher Kd goes with weaker binding.
